# Data: ChEMBL document CHEMBL1201862, “PubChem BioAssay data set” (2004)
# Activity calls are given as the source filed them.
# Tests used:
# [1] = HEp-2 cell cytotoxicity, dose response, cytotoxicity control for RSV inhibitor project, HTS (AID 2410); type: functional; conditions: human respiratory syncytial virus
# [2] = Luminescence Cell-Based Dose Retest to Confirm Inhibitors of Cancer Stem Cells. [Related pubchem assays (depositor defined):AID2717, AID2721]; type: functional; conditions: Homo sapiens
# [3] = tested on: H4; test: Luminescence Cell-Based Dose Response HTS to Identify Activators of 5'UTR Stem-Loop Driven Prion Protein mRNA Translation in H4 Neuroglioblastoma Cells. [Related pubchem assays: 1829 (Project Summary), 1814 (Primary HTS)]; type: functional; conditions: Homo sapiens
# [4] = Luminescence Cell-Based Dose Confirmation HTS to Identify Activators of 5'UTR Stem-Loop Driven Alpha-Synuclein mRNA Translation in H4 Neuroglioblastoma Cells. [Related pubchem assays: 1829 (Project Summary), 1814 (Primary HTS)]; type: functional
# [5] = Luminescence Cell-Based Dose Response HTS to Identify Activators of Luciferase Translation or Activity in H4 […] Cells. [Related pubchem assays: 1829 (Project Summary), 1814 (Primary HTS)]; type: functional
# [6] = target: T1, Heat shock factor protein 1 (Mus musculus, UniProt P38532); test: HSF1 potentiators in luciferase reporter cells, confirmation, cell-based, NIH3T3, luminescence, dose retest (AID 435004); type: functional;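 note: stress induced by proteasome inhibitor MG132 added 30 min after compound; luciferase reporter driven by HSF1 response element in NIH3T3 cells; actives raise luminescence as potentiators of the MG132 stress response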
# T1 sequence (P38532 whole entry): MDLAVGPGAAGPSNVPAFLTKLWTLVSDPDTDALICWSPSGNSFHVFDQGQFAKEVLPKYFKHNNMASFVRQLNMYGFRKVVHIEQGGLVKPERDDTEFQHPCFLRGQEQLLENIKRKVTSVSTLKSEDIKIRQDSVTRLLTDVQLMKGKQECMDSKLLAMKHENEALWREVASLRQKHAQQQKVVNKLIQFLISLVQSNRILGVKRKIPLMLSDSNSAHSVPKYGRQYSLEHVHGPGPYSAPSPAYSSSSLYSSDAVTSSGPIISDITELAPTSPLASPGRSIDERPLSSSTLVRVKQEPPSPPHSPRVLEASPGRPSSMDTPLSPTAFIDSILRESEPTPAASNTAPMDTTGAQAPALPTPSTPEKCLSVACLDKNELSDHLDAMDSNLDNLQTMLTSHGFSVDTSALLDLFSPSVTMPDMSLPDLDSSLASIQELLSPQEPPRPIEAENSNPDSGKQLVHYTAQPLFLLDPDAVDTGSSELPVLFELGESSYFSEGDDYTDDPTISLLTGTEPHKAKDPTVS
# [7] = target: Cytochrome P450 3A4 (Homo sapiens, UniProt P08684);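 note: CYP3A4 tested as one member of a cytochrome P450 panel screen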
# Cytochrome P450 3A4, sequence (P08684 whole entry): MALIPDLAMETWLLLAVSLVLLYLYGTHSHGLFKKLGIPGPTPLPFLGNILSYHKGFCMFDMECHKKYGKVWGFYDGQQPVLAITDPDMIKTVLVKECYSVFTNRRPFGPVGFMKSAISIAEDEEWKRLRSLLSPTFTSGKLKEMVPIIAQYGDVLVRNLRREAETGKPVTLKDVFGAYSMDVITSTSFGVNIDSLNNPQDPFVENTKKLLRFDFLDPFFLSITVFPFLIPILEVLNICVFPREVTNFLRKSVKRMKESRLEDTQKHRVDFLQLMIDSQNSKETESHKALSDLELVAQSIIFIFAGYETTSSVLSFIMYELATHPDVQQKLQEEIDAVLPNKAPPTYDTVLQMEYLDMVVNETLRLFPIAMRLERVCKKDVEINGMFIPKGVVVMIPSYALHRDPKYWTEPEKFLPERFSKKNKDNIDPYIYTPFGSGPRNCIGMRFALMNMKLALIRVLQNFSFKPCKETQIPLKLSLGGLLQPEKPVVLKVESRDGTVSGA
# [8] = inhibitors of intracellular T. cruzi replication, confirmation, NIH3T3 host cells, beta-gal luminescence (AID 2044); type: functional, cell-based;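 note: intracellular parasites grown in NIH/3T3 mouse fibroblasts as host cells; luminescent beta-galactosidase reporter signal from transgenic T. cruzi replicating inside host cells; inhibitors lower the luminescence signal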
# [9] = cytotoxicity toward NIH3T3 fibroblasts, dose response, counter-screen, cell-based, ATP luminescence, mouse fibroblasts (AID 2010); type: functional;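 note: cells exposed to compound for about 90 hours before reading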
# [10] = inhibitors of SNCA 5'UTR-driven reporter translation, confirmation, H4 neuroglioma cells, luminescence (AID 1988); type: functional, cell-based
# [11] = inhibitors of firefly luciferase expression or activity, dose response, H4 neuroglioma cells, luminescence (AID 1990); type: functional, cell-based
# [12] = Luminescence Cell-Based Dose Response HTS to Identify Inhibitors of 5'UTR Stem-Loop Driven Prion Protein mRNA Translation in H4 Neuroglioblastoma Cells. [Related pubchem assays: 1827 (Project Summary), 1813 (Primary HTS)]; type: functional
# [13] = target: Cytochrome P450 2C19 (Homo sapiens, UniProt P33261); test: Cytochrome panel assay with activity outcomes. Panel member name: p450-cyp2c19 Compounds with AC50 equal or less than 10 uM are considered active; type: functional; conditions: read-out: AC50
# Cytochrome P450 2C19, sequence (P33261 whole entry): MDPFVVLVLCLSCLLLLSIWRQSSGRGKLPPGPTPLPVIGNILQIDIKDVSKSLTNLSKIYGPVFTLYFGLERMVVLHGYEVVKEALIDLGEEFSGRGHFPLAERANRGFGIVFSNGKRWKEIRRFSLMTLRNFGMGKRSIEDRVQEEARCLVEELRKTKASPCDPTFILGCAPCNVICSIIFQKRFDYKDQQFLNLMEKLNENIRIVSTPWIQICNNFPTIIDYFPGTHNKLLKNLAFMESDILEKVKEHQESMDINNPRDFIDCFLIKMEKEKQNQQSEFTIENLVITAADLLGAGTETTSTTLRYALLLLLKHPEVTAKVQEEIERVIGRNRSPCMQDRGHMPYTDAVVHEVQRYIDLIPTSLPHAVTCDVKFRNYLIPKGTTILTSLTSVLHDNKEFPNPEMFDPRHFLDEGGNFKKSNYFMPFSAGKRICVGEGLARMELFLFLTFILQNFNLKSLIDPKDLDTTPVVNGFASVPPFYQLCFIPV
smiles,measurement,setting,value
Cc1cccc(Cn2cc(/C=C/[N+](=O)[O-])c3ccccc32)c1,CC50,[1],12.7 µM (active)
same,AC50,[2],3.7 µM (active)
Cc1nc2c(sc3nc4c(cc32)COC(C)(C)C4)c(=O)n1Cc1ccccc1,EC50,[3],11.6 µM (active)
same,EC50,[4],7.25 µM (active)
same,EC50,[5],7.48 µM (active)
CCOc1ccccc1NC(=O)c1nnn(-c2ccc3c(c2)OCCO3)c1N,CC50,[1],24.3 µM (active)
CCn1c(SC)nnc1C1CCCN(CC(=O)Nc2ccccc2N2CCOCC2)C1 (stereo not given),EC50,[6],> 260 µM (inactive)
CCC1CCC2(CC1)SCC(=O)N2c1ccccc1 (stereo not given),EC50,[6],> 260 µM (inactive)
Cc1cc(NC(=O)Cn2cnc3sc(C)c(-c4ccccc4)c3c2=O)no1,EC50,[6],> 260 µM (inactive)
CCn1c2c(c3ccc(OC)cc31)CCCC2=O,CC50,[1],> 50 µM (active)
Cc1ccc(N=NC2=C(O)OC(C)(C)OC2=O)c(C)c1,EC50,[3],19.1 µM (active)
same,EC50,[4],15 µM (active)
same,EC50,[5],14.7 µM (active)
O=C(Cc1ccc(F)cc1)Nc1nnc(SCC(=O)N2CCCCC2)s1,AC50,[2],24.3 µM (active)
COCCOC(=O)C1=C(C)N=C(C)/C(=C(/O)OCCOC)C1/C=C/c1ccccc1OC (stereo not given),EC50,[6],45.7 µM (active)
COc1ccc(-c2sc3ccc(N4CCOCC4)cc3c2C#CC(C)(C)O)cc1,AC50,[2],0.873 µM (active)
COc1ccc2c(OC)c3ccoc3nc2c1OC [SKIMMIANINE],AC50,[7],7.94 µM (inconclusive)
CCN(CCCNC(=O)COc1cc(=O)n(C)c2ccccc12)c1cccc(C)c1,EC50,[6],> 260 µM (inactive)
O=C(OC(C(=O)Nc1ccc(Cl)cc1C(F)(F)F)c1ccccc1)c1c(Cl)cccc1Cl (stereo not given),CC50,[1],22.1 µM (active)
CCCSc1nnc2n(N)c(=O)c3ccccc3n12,AC50,[7],28.2 µM (inconclusive)
Cc1ccccc1S(=O)(=O)N1[C@@H](c2cccc(Cl)c2)C(C(=O)O)=CC[C@H]1c1ccc(Cl)cc1,CC50,[1],15.4 µM (active)
COc1ccccc1-c1nnc(SCC(=O)Nc2ccccc2)o1,EC50,[3],66.2 µM (inconclusive)
same,EC50,[4],0.382 µM (active)
same,EC50,[5],4.37 µM (inconclusive)
O=C(CN1C(=O)S/C(=C\C=C\c2ccccc2)C1=O)N1CCOCC1,EC50,[3],17.8 µM (active)
same,EC50,[4],12.2 µM (active)
same,EC50,[5],10.3 µM (active)
CC(/C=N/NC(=O)c1cc(-c2ccc(C)s2)[nH]n1)=C\c1ccccc1,AC50,[2],0.501 µM (active)
Cc1cccc(CNc2ccc(C(CC(N)=O)NC(=O)Cc3cccc4ccccc34)cc2[N+](=O)[O-])c1 (stereo not given),AC50,[2],5.85 µM (active)
O=C(NC1CCCC1)c1ccc(CSCc2ccccc2F)o1,EC50,[3],> 120 µM (not active)
same,EC50,[4],> 120 µM (not active)
same,EC50,[5],16.2 µM (active)
COc1ccc([N+](=O)[O-])cc1NC(=O)C(C)N(C)Cc1cccc(OC)c1OC (stereo not given),CC50,[1],> 50 µM (active)
COc1ccc(C2Nc3ccccc3C(=O)N2NS(=O)(=O)c2ccc(C)cc2)cc1 (stereo not given),EC50,[6],> 260 µM (inactive)
Cc1ccc(N2C(=O)C3C4C=CC(CC4)C3C2=O)cc1Br (stereo not given),AC50,[2],0.678 µM (active)
O=C(CSc1nnc2c(Cl)cc(C(F)(F)F)cn12)N(Cc1ccccc1)Cc1ccccc1,EC50,[6],> 260 µM (inactive)
CC(C)(C)NC(=O)C(c1c[nH]c2ccccc12)N(C(=O)Cn1nnc(-c2ccc(Cl)cc2)n1)c1ccccc1F (stereo not given),CC50,[1],25.8 µM (active)
same,EC50,[8],1.79 µM (active)
same,EC50,[9],> 60 µM (not active)
COc1ccc(OC)c(C(=O)/C=C/c2ccccc2C(F)(F)F)c1,AC50,[2],5.2 µM (active)
COc1ccccc1NC(=O)Nc1nnc(-c2ccco2)s1,AC50,[7],17.8 µM (inconclusive)
Cc1ccc(C)c(OCCC(=O)N2CCN(S(=O)(=O)c3cc(C)ccc3C)CC2)c1,CC50,[1],22.3 µM (active)
same,EC50,[10],97 µM (active)
same,EC50,[11],> 120 µM (not active)
same,EC50,[12],> 120 µM (not active)
COCCn1c(=O)c(-c2ccc(Cl)cc2)nc2cnc(Oc3ccccc3)nc21,AC50,[7],25.1 µM (inconclusive)
same,AC50,[13],39.8 µM (inconclusive)
COc1ccc(CCN2C(=S)N(C)C(=O)C2CC(=O)Nc2ccc(OC)cc2)cc1 (stereo not given),AC50,[2],5.5 µM (active)
CCCCCCCC/C=C\CCCCCCCC(N)=O [OLEAMIDE],AC50,[7],50.1 µM (inconclusive)
same,AC50,[13],31.6 µM (inconclusive)
Cc1ccc(Nc2[nH]nc(C)c2[N+](=O)[O-])cc1,EC50,[3],0.172 µM (active)
same,EC50,[4],44.9 µM (active)
same,EC50,[5],25.3 µM (active)
O=C(OCCOc1ccccc1)c1[nH]nc2ccccc12,EC50,[3],98.3 µM (inconclusive)
same,EC50,[4],3.16 µM (active)
same,EC50,[5],0.748 µM (active)
C=CCN1C(=O)C(Cc2ccc(OCC)cc2)S/C1=N/c1ccc(C(=O)O)cc1 (stereo not given),EC50,[6],> 260 µM (inactive)
Cc1ccccc1Cn1nc(C)c(NC(=O)C2c3ccccc3Oc3ccccc32)c1C,EC50,[6],> 260 µM (inactive)
CSc1ccc(CNc2ccccc2)cc1,AC50,[7],35.5 µM (inconclusive)
Cc1c(/N=C2\SCC(=O)N2/N=C\c2ccc(Br)cc2)c(=O)n(-c2ccccc2)n1C,EC50,[6],> 260 µM (inactive)
COc1ccc(Cl)cc1NC(=O)CCc1nc(-c2ccccc2F)no1,EC50,[6],> 260 µM (inactive)
CSCC(=O)N1CCC(n2nccc2NC(=O)c2ccc3c(c2)OCO3)CC1,EC50,[3],> 120 µM (not active)
same,EC50,[4],13.6 µM (active)
same,EC50,[5],12.3 µM (active)
O=C(Nc1ccc(Cn2cccn2)cc1)c1ccc(COc2cccc(Br)c2)cc1,AC50,[2],< 0.16 µM (active)
O=C(O)CCn1[nH]c(=O)ccc1=O,EC50,[6],> 260 µM (inactive)
Cc1ccccc1Nc1nc(N)nc(-c2oc3ccccc3c2C)n1,CC50,[1],35.4 µM (active)
same,EC50,[8],3.43 µM (active)
same,EC50,[9],> 60 µM (not active)
O=C(NC(=S)N1CCCCC1)c1csc([N+](=O)[O-])c1,EC50,[3],> 120 µM (not active)
same,EC50,[4],14.9 µM (active)
same,EC50,[5],> 120 µM (not active)
O=[N+]([O-])c1nn(-c2ccc3c(c2)OCCO3)[n+]([O-])c1NCCC1=CCCCC1,EC50,[8],0.574 µM (active)
same,EC50,[3],77.1 µM (active)
same,EC50,[9],> 60 µM (not active)
same,AC50,[2],52.2 µM (active)
CC(C)(C)CC(C)(C)c1ccc(OCOCCOCCO)c(Cc2cc(C(C)(C)CC(C)(C)C)cc(Cc3cc(C(C)(C)CC(C)(C)C)ccc3OCOCCOCCO)c2OCOCCOCCO)c1,AC50,[7],12.6 µM (inconclusive)
CCc1ccc(-c2cc(C(F)(F)F)n3nc(C(=O)Nc4cnn(Cc5ccccc5C)c4)cc3n2)s1,AC50,[7],3.16 µM (inconclusive)
CC(=O)c1cc2c(s1)-c1cc(F)ccc1OC2,CC50,[1],33.3 µM (active)
C=CCc1c(C)nc2c(OC)cccc2c1Cl,CC50,[1],48.5 µM (active)
CCCn1nc(NC(=O)CC(C)C)c2cc3ccccc3nc21,AC50,[7],3.16 µM (inconclusive)
same,AC50,[13],7.94 µM (inconclusive)
COc1ccccc1C(=O)Nc1ccc2c(c1)nc(CCNC(=O)c1ccco1)n2C,EC50,[3],> 120 µM (not active)
same,EC50,[4],20.2 µM (active)
same,EC50,[5],81.6 µM (active)
Cc1ccc(-n2nnnc2SC(C(=O)c2c[nH]c3ccccc23)c2ccccc2)cc1 (stereo not given),AC50,[2],2.14 µM (active)
CN(CC(=O)Nc1ccc(Cl)c(C(F)(F)F)c1)C(=O)Cc1c[nH]c2ccccc12,CC50,[1],16.7 µM (active)
O=C(O)c1ccc(Cn2nnc3sc4c(c3c2=O)CCCC4)cc1,EC50,[3],53.1 µM (active)
same,EC50,[4],13.2 µM (active)
same,EC50,[5],13.2 µM (active)
